Measurements published in ChEMBL document CHEMBL1201862, “PubChem BioAssay data set” (2004).
Calls of active or inactive are those of the source.

Legend:
Prothrombin = Prothrombin (Bos taurus, UniProt P00735); assay: thrombin inhibition, dose response, biochemical, fluorescence polarization, uHTS hits (AID 602369); assay type: functional
[1] = biological target: 72 kDa type IV collagenase (Homo sapiens, UniProt P08253); assay: Dose Response validation of uHTS RPN11 inhibitor hits using a MMP-2 Fluorescence assay.; assay type: functional
Chain of 72 kDa type IV collagenase (P08253 whole entry): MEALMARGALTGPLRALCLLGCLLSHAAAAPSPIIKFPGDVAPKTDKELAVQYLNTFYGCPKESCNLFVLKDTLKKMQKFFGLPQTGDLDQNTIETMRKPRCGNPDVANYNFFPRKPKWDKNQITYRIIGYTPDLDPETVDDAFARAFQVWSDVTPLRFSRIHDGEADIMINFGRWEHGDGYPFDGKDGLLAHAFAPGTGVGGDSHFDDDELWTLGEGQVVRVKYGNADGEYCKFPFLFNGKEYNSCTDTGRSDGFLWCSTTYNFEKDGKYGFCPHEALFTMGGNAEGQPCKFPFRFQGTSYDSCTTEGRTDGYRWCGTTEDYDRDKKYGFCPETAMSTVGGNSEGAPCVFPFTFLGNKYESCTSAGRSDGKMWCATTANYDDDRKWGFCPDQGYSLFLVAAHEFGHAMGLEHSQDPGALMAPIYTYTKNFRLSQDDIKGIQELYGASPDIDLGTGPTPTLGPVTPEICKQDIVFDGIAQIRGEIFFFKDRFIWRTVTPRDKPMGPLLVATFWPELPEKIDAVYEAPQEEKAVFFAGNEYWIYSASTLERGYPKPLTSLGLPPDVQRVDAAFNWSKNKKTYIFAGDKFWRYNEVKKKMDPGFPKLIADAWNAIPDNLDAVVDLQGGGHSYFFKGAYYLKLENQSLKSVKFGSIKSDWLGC

[2] = biological target: 26S proteasome non-ATPase regulatory subunit 14 (Homo sapiens, UniProt O00487); assay: inhibition of proteasome subunit RPN11 – biochemical, fluorescence polarization, uHTS hits, confirmation (AID 602368); assay type: functional
Chain of 26S proteasome non-ATPase regulatory subunit 14 (O00487 whole entry): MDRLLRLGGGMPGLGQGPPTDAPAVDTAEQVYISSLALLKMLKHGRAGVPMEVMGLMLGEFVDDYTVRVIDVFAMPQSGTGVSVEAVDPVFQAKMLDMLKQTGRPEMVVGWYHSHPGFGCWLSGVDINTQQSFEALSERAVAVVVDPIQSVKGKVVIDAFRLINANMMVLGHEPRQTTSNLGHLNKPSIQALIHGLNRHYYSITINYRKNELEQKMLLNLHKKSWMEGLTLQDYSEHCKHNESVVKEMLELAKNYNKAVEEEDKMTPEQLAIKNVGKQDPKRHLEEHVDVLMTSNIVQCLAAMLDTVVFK

cells [3] = assay type: functional
[4] = AlphaScreen signal interference compounds, dose response, artefact control for ARNT-TACC3 interaction inhibitor project, biochemical, luminescence, cherry-pick (AID 651705); assay type: functional;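 also: AlphaScreen bead proximity signal that flags compounds interfering with the detection technology; potency reflects signal decrease which marks the compound as an assay artifact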
cells [5] = assay type: functional, cell-based
cells [6] = assay type: functional, cell-based; remark: listed apart in the source
Streptokinase A = biological target: T1, Streptokinase A (Streptococcus pyogenes serotype M1, UniProt P10520); assay: S. pyogenes streptokinase expression inhibitors, potency, dose response, plasminogen activation absorbance, OD405 (AID 1914); assay type: functional, Streptococcus pyogenes M1 GAS;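 also: secreted streptokinase activity via plasminogen activation per viability signal from cell pellet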
T1 sequence (P10520 whole entry): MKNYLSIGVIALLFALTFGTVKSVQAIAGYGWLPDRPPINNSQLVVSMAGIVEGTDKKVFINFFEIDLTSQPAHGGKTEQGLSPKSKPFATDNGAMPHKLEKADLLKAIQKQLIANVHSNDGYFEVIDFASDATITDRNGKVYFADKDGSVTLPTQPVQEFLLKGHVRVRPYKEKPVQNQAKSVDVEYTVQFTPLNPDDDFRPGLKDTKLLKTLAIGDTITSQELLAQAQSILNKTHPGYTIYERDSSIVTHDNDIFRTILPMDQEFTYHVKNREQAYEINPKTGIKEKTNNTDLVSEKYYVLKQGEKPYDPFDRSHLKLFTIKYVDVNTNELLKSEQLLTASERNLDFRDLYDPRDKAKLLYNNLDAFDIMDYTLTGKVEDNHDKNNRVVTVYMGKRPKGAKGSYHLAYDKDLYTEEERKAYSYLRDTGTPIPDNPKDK

[7] = test system: Streptococcus sp. 'group A'; assay: growth inhibition of control SK(-) GAS strain, dose response, counter-screen for streptokinase expression inhibitor project, luminescence, kanamycin, BacTiterGlo, confirmation (AID 1900); assay type: functional, organism-based; settings: Streptococcus sp. 'group A'
Streptococcus = assay: Group A Streptococcus viability loss, dose response, counter-screen for streptokinase expression inhibitor project, luminescence, BacTiterGlo (AID 1915); assay type: functional, organism-based; settings: Streptococcus;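 also: potency for reduction of bacterial viability or growth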
[8] = biological target: T2, Long-chain-fatty-acid--AMP ligase FadD28 (Mycobacterium tuberculosis, UniProt P9WQ59); assay: Fluorescence polarization aasay to screen for inhibitors that compete for the binding of FadD28 to a bisubstrate Measured in Biochemical System Using Plate Reader - 2147-01_Inhibitor_Dose_CherryPick_Activity.; assay type: functional, Mycobacterium tuberculosis H37Rv
T2 sequence (P9WQ59 whole entry): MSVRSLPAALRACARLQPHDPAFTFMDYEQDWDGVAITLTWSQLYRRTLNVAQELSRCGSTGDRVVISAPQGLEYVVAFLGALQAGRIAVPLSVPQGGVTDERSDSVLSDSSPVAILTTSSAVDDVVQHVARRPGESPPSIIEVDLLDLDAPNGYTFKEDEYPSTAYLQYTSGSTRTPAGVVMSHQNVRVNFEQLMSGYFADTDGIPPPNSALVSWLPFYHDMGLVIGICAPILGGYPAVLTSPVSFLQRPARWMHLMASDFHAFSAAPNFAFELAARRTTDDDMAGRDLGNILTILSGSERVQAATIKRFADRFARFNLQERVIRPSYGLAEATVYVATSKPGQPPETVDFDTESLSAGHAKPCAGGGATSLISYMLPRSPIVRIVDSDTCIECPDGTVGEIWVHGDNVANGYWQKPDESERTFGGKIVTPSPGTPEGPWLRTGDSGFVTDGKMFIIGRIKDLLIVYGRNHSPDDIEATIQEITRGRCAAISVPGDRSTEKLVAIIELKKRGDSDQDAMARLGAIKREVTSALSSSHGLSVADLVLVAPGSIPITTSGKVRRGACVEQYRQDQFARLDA

[9] = biological target: T3, High affinity choline transporter 1 (Homo sapiens, UniProt Q9GZV3); assay: CHT inhibitors, dose response, cell-based, 5-point CRC, membrane potential dye (AID 504840); assay type: functional
T3 sequence (Q9GZV3 whole entry): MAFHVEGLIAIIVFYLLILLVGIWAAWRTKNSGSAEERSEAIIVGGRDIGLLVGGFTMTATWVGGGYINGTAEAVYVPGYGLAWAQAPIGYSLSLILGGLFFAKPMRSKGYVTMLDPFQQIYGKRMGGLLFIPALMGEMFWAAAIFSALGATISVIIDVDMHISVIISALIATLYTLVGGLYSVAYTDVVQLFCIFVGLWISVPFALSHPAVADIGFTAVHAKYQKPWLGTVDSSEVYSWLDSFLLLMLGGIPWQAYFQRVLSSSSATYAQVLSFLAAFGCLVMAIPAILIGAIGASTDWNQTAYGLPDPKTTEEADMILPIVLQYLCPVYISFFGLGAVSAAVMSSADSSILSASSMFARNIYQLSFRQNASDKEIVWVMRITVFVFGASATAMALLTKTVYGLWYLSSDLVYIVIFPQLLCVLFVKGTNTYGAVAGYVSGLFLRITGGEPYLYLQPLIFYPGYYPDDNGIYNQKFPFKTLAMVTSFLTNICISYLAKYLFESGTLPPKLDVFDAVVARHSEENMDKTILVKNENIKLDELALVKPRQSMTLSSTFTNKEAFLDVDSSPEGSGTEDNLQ

[10] = biological target: Dual specificity tyrosine-phosphorylation-regulated kinase 1A (Rattus norvegicus, UniProt Q63470); assay type: biochemical, Homo sapiens
[11] = biological target: T4, Adenosylmethionine-8-amino-7-oxononanoate aminotransferase (Mycobacterium tuberculosis, UniProt P9WQ81); assay: Mycobacterium tuberculosis BioA enzyme inhibitor Measured in Biochemical System Using Plate Reader - 2163-02_Inhibitor_Dose_CherryPick_Activity.; assay type: functional, Mycobacterium tuberculosis UT205
T4 sequence (P9WQ81 whole entry): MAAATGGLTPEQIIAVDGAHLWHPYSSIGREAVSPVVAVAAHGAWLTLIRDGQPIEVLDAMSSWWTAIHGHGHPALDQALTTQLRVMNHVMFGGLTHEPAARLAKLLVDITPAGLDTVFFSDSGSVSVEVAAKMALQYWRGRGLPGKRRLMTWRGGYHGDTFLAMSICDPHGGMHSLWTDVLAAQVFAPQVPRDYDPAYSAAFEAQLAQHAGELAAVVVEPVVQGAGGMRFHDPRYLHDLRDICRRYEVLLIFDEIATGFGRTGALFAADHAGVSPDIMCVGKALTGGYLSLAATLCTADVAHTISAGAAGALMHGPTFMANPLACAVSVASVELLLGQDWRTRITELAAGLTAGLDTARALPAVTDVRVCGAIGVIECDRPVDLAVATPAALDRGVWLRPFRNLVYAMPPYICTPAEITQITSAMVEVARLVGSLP

[12] = Luminescence Cell-Based Dose Confirmation HTS to Identify Inhibitors of Platelet Dense Granule Release. [Related pubchem assays: 1663 (Primary HTS), 1678 (Summary of Project)]; assay type: functional
[13] = biological target: Luciferin 4-monooxygenase (Photinus pyralis, UniProt P08659); assay: firefly luciferase enzyme inhibitors, dose response, biochemical, luminescence (AID 1891)
Chain of Luciferin 4-monooxygenase (P08659 whole entry): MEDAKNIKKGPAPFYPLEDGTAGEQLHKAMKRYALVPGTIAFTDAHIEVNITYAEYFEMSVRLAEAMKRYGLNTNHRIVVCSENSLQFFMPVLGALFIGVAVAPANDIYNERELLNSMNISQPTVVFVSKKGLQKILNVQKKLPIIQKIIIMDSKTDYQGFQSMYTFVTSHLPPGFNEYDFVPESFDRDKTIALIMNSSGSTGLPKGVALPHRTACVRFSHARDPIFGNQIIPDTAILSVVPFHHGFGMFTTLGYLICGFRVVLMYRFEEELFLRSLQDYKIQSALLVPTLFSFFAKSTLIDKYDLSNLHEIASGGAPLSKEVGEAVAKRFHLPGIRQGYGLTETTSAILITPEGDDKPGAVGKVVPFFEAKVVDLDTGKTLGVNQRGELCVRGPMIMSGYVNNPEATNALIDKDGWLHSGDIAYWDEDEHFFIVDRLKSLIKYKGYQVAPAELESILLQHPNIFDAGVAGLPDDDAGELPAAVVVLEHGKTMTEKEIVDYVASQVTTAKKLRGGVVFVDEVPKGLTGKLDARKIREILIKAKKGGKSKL

Melanocortin receptor 4 = Melanocortin receptor 4 (Homo sapiens, UniProt P32245); assay type: functional, cell-based;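 also: Cell-based assay with luminescence read-out, confirmatory dose-response testing for agonist activity of biased ligands at MC4R; human U2OS cells with tagged receptor and beta-arrestin; potency of agonists that increase receptor coupling to beta-arrestin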
Chain of Melanocortin receptor 4 (P32245 whole entry): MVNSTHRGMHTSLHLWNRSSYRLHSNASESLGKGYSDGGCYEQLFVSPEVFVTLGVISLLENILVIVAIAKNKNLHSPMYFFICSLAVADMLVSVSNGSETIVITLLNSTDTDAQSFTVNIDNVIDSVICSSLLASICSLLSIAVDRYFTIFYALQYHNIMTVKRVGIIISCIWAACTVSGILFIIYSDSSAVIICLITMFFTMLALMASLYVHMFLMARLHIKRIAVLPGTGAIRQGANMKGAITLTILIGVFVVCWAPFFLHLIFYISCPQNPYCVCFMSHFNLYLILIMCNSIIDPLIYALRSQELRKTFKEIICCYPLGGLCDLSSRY

[14] = biological target: T5, Short transient receptor potential channel 4 (Mus musculus, UniProt Q9QUQ5); assay: mouse TRPC4 channel activators, dose response, cell-based, HEK293 TRPC4/mu-opioid, Fluo-4 calcium (AID 434937); assay type: functional
T5 sequence (Q9QUQ5 whole entry): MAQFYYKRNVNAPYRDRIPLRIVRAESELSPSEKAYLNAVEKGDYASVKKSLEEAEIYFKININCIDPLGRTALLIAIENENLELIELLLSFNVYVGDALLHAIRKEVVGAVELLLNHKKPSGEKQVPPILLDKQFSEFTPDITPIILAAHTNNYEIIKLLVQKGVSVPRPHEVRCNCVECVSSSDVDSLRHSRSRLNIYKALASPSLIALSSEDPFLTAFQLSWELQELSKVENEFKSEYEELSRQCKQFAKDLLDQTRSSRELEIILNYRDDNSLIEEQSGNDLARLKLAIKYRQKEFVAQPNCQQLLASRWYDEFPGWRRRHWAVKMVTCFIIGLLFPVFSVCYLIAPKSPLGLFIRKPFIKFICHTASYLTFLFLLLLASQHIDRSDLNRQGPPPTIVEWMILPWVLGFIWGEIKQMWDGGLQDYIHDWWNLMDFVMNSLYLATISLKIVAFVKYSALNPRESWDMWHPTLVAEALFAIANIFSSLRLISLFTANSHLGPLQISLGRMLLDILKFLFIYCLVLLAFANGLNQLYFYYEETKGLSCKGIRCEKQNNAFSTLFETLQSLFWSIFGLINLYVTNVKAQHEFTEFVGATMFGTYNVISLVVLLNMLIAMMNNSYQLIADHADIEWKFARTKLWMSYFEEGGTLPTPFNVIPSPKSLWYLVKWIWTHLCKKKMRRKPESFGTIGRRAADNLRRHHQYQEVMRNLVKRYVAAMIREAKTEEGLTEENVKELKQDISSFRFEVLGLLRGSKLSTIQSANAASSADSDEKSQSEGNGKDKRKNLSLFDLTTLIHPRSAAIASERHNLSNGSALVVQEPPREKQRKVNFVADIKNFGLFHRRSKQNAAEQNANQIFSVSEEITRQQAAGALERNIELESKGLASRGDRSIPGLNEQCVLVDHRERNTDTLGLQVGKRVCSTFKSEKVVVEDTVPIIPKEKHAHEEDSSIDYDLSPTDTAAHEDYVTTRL

SUMO-activating enzyme = SUMO-activating enzyme (Homo sapiens, UniProt Q9UBT2); assay: SUMOylation inhibitor hit validation, confirmation, SUMOylation inhibitor project, biochemical, AlphaScreen (AID 2018); assay type: functional
Chain of SUMO-activating enzyme (Q9UBE0 whole entry): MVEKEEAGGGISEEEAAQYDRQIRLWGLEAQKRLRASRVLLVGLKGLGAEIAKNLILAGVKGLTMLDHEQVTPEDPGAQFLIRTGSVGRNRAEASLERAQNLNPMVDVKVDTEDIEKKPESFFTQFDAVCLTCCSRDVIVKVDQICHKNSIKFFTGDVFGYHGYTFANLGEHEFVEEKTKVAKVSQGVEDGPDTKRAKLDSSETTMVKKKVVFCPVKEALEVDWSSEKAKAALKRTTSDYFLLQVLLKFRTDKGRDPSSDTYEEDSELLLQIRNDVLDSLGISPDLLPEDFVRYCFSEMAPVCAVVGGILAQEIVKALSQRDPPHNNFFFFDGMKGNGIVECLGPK
Chain of SUMO-activating enzyme (Q9UBT2 whole entry): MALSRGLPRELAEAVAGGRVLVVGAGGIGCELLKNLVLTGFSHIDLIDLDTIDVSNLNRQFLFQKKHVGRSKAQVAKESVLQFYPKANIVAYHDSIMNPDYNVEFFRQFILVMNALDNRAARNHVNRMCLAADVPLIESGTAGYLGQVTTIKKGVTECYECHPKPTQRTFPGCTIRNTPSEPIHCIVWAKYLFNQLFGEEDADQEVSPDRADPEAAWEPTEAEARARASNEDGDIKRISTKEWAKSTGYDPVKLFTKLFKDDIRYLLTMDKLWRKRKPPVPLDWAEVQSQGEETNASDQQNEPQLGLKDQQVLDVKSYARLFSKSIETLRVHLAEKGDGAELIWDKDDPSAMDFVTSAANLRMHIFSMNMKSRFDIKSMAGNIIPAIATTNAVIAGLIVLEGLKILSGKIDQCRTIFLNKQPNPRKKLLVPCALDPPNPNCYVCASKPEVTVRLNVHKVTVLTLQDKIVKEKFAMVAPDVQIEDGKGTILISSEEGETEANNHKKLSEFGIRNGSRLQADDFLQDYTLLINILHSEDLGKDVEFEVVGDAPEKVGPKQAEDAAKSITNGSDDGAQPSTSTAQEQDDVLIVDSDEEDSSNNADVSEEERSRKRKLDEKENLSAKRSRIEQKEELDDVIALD

[15] = biological target: FAD-linked sulfhydryl oxidase ALR (Homo sapiens, UniProt P55789); assay: inhibitors of human ALR sulfhydryl oxidase, dose response, biochemical, H2O2 detection, luminescence, cherry-pick (AID 493248)
Chain of FAD-linked sulfhydryl oxidase ALR (P55789 whole entry): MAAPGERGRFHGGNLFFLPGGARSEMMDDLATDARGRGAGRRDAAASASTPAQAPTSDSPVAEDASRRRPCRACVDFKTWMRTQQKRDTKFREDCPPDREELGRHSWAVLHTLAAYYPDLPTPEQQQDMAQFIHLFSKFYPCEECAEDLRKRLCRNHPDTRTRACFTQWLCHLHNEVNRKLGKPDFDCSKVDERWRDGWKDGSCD

[16] = biological target: Eukaryotic translation initiation factor 4E (Mus musculus, UniProt P63073); assay: eIF4E–eIF4G protein interaction inhibitors, dose response, biochemical, TR-FRET (AID 855); assay type: functional;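 also: potency for disrupting eIF4E binding to eIF4GI seen as loss of FRET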
Chain of Eukaryotic translation initiation factor 4E (P63073 whole entry): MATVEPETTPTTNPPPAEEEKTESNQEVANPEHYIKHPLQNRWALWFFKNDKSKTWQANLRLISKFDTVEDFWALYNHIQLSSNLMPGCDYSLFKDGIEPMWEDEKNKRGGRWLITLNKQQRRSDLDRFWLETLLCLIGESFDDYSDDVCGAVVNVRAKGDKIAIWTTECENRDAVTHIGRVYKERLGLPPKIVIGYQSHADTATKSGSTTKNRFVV

Cc1cc(C)cc(-n2cccc2/C=C2/C(=N)N3C(=NC2=O)SN=C3S(C)(=O)=O)c1
IC50 (Prothrombin): 74.6 µM (active)
IC50 [1]: 81.6 µM (active)
IC50 [2]: 37.6 µM (active)

Clc1cccc(-c2ccc(CNCc3ccccn3)o2)c1
IC50 (cells [3]): 3.05 µM (active)
AC50 [4]: 94.4 µM (active)

CC(=O)c1cccc(OCC(O)CNCCc2ccc(Cl)cc2)c1 (centres undefined)
EC50 (cells [5]): > 29.9 µM (inactive)
IC50 (cells [6]): > 29.9 µM (inactive)

CCc1c(O)n(C2CCCCC2)c(SCC(=O)Nc2nc3ccccc3s2)nc1=O
EC50 (Streptokinase A): 17.1 µM (active)
EC50 [7]: 11.8 µM (active)
EC50 (Streptococcus): 122 µM (active)
AC50 [8]: 29 µM (active)

Cc1ccc2cc3c(NS(=O)(=O)c4cccc5nonc45)nn(CC(C)C)c3nc2c1
IC50 [9]: 13.8 µM (active)

COc1ccc2cc(-c3cccnc3)ncc2c1
AC50 [10]: 6.39 µM (active)

CN1c2ccc(-c3ccccc3)cc2[C@H]2[C@H](CCN2C(=O)Cc2ccccn2)[C@H]1CO
AC50 [11]: 6.13 µM (active)

O=C(CSc1nc2cc(C(=O)O)ccc2c(=O)n1-c1ccc(F)cc1)Nc1ccc(F)c(F)c1F
AC50 [11]: 2.65 µM (active)

CCC(NCCc1ccccc1)=C1C(=O)NC(=O)NC1=O
EC50 (cells [5]): > 29.9 µM (inactive)
EC50 [12]: 14.5 µM (active)
IC50 (cells [6]): > 29.9 µM (inactive)
EC50 [13]: > 112 µM (not active)

CCCCNC(=O)c1ccc2c(OCC)n(CCCC)nc2c1
IC50 [9]: 13.1 µM (active)

CC1(C)Oc2ccc3ccc(=O)oc3c2C(/C=N/c2ccc(O)cc2)=C1O
EC50 (Melanocortin receptor 4): > 89.2 µM (inactive)

O=c1[nH]c(N2CCN(Cc3ccc4c(c3)OCO4)CC2)nc2c1CCC2
AC50 [11]: 0.93 µM (active)

COc1ccccc1NC(=O)Nc1nc(C(N)Cc2ccc(Cl)cc2)cs1 (centres undefined)
EC50 (Melanocortin receptor 4): > 89.2 µM (inactive)

COc1ccc(C(CNCC(=O)Nc2ccccc2F)N(C)C)cc1 (centres undefined)
EC50 [14]: 0.133 µM (active)

CC(Oc1ccccc1)C(=O)OCC(=O)N1CC(=O)Nc2ccccc21 (centres undefined)
AC50 [8]: > 100 µM (inactive)

COc1ccccc1NC(=O)c1sc2ncn(CC(=O)Nc3ccccc3)c(=O)c2c1C
IC50 (SUMO-activating enzyme): 20.4 µM (active)

Cc1ccc(-n2cccc2/C=C2/C(=N)N3C(=NC2=O)SN=C3S(C)(=O)=O)cc1
IC50 (Prothrombin): 86.9 µM (active)
IC50 [1]: > 100 µM (inactive)
AC50 [15]: 0.598 µM (active)
IC50 [2]: 26.2 µM (active)

CCn1c(SCC(=O)Nc2ccc(C(C)=O)cc2)nc2nc3c(cc2c1=O)CCCC3
IC50 [16]: > 64 µM (inactive)
EC50 (Melanocortin receptor 4): > 89.2 µM (inactive)

Fc1ccc(C2CCNCC2COc2ccc3c(c2)OCO3)cc1 (centres undefined)
EC50 [14]: 10.6 µM (active)

CN1CCN(c2ccc(C(F)(F)F)cc2NC(=O)Nc2ccccc2)CC1
EC50 [14]: 4.73 µM (active)

C(=C\c1ccco1)/C1=NN(c2ccccc2)C(c2ccco2)C1 (centres undefined)
IC50 (Prothrombin): 14.8 µM (active)
IC50 [1]: > 100 µM (inactive)
IC50 [2]: 22.8 µM (active)

CCn1cc(CNC(=O)c2cc(COc3ccc(F)cc3F)on2)cn1
IC50 [9]: 18.2 µM (active)

Fc1ccc(-c2nnc(CN3CCN(c4ncc(C(F)(F)F)cc4Cl)CC3)o2)cc1
EC50 [14]: 5.31 µM (active)
